pEC50: −log10 of the molar value.
How the values were obtained:
[1] = Cytotoxicity against human IN1760 cells assessed as decrease in cell proliferation after 72 hrs by SRB assay; type: functional, cell-based; settings: IN1760, 72 h
[2] = Cytotoxicity against human IN1528 cells assessed as decrease in cell proliferation after 72 hrs by SRB assay; type: functional, cell-based; settings: IN1528, 72 h
U-251 = experiment: Cytotoxicity against human U251 cells assessed as decrease in cell proliferation after 72 hrs by SRB assay; type: functional, cell-based; settings: U-251, 72 h
[3] = Cytotoxicity against human U87 cells assessed as decrease in cell proliferation after 72 hrs by SRB assay; type: functional, cell-based, U-87MG ATCC; settings: U-87 MG
[4] = Cytotoxicity against human IN1472 cells assessed as decrease in cell proliferation after 72 hrs by SRB assay; type: functional, cell-based; settings: IN1472, 72 h

Compound | pEC50 [1] | pEC50 [2] | pEC50 (U-251) | pEC50 [3] | pEC50 [4]
OCc1csc2ccccc12 | 2.97 | 2.40 | 2.91 | – | –
OCc1c(-c2ccccc2)[nH]c2ccccc12 [(2-PHENYL-1H-INDOL-3-YL)METHANOL] | 2.84 | 5.00 | 3.89 | 4.52 | 3.32
Cc1ccc(S(=O)(=O)n2cc(CO)c3ccccc32)cc1 | 3.19 | 3.36 | 3.85 | – | –
c1ccc2c(Cc3c[nH]c4ccccc34)c[nH]c2c1 [ARUNDINE] | 3.64 | 3.36 | 3.55 | – | –
OCCc1c(-c2ccccc2)[nH]c2ccccc12 | 3.48 | 5.40 | 3.60 | 3.96 | 3.46
c1ccc(-c2[nH]c3ccccc3c2Cc2c(-c3ccccc3)[nH]c3ccccc23)cc1 | 4.30 | 3.57 | 4.30 | – | –
CC(=O)n1c(-c2ccccc2)c(CO)c2ccccc21 | < 2.00 | < 2.00 | 3.22 | – | –
CC(=O)n1cc(CO)c2ccccc21 | < 2.00 | 2.24 | 2.75 | – | –
OCc1c[nH]c2ccccc12 [INDOLE-3-CARBINOL] | 2.80 | 3.92 | 3.41 | 3.54 | 3.02
OCCc1c[nH]c2ccccc12 [TRYPTOPHOL] | 2.34 | 2.76 | 2.91 | 3.24 | 2.71
